Assays:
Format in all cases: cell-based
ΔF508-CFTR [1] = molecular target: T1, ΔF508-CFTR (Homo sapiens, UniProt P13569, DEL508-508); assay: CFTR cell surface levels using HRP-tagged ΔF508-CFTR expressing CFBE cells, in the presence of a co-corrector; conditions: HRP-tagged ΔF508-CFTR CFBE cells, in the presence of 3 μM co-corrector; for EC50: read-out: EC50
T1 construct: host or cells: CFBE41o-, doxycycline-inducible
How it was run: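 Chemiluminescent read-out of surface HRP (15 min, dark) after PBS washes. Activity is normalized as 100×(sample−DMSO)/(3 μM co-corrector alone−DMSO).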

ΔF508-CFTR [2] = molecular target: T1, ΔF508-CFTR; assay: CFTR cell surface levels using HRP-tagged ΔF508-CFTR expressing CFBE cells, intrinsic corrector capacity; design: % Activation: concentration or dose not given beside the values; conditions: HRP-tagged ΔF508-CFTR expressing CFBE41o- cells, compound alone (intrinsic corrector capacity), 20 hours at 33° C.; for EC50: read-out: EC50
How it was run: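 Surface ΔF508-CFTR was measured as HRP chemiluminescence from an extracellular-loop-4 tag, expressed as percent activity between DMSO and a […] corrector control.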

CFTR ΔF508 = molecular target: T2, CFTR ΔF508 (Homo sapiens, UniProt P13569, DEL508-508); assay: Chronic TECC assay, primary bronchial epithelial cells of CF patients homozygous for CFTR ΔF508 (corrector, co-corrector and potentiator); conditions: chronic TECC, AUC = full area under the curve upon forskolin stimulation; for EC50: read-out: EC50 (nM) (AUC**); for % Activity at 1 μM (AUC**): test compound at 1 μM
T2 construct: bronchial epithelial cells isolated from CF patients homozygous for the CFTR ΔF508 mutation; McGill University; Asterand; University of North Carolina hAEC-CF; host or cells: primary human bronchial epithelial cells from CF patients homozygous for ΔF508, differentiated at air-liquid interface
How it was run: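 Primary bronchial epithelial cells from ΔF508-homozygous CF patients on collagen IV-coated Transwells were chronically treated with test compound plus corrector and potentiator, which were re-added before recording. Ieq was derived from PD and Rt in NaCl-Ringer, pH 7.4, at 37° C, with apical amiloride and bilateral forskolin, recorded every 2 min over 20 min. Ieq increase was normalized to controls, and EC50 was taken from per-well concentrations.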

T2 sequence (P13569 with tags, fused parts or gaps DEL508-508): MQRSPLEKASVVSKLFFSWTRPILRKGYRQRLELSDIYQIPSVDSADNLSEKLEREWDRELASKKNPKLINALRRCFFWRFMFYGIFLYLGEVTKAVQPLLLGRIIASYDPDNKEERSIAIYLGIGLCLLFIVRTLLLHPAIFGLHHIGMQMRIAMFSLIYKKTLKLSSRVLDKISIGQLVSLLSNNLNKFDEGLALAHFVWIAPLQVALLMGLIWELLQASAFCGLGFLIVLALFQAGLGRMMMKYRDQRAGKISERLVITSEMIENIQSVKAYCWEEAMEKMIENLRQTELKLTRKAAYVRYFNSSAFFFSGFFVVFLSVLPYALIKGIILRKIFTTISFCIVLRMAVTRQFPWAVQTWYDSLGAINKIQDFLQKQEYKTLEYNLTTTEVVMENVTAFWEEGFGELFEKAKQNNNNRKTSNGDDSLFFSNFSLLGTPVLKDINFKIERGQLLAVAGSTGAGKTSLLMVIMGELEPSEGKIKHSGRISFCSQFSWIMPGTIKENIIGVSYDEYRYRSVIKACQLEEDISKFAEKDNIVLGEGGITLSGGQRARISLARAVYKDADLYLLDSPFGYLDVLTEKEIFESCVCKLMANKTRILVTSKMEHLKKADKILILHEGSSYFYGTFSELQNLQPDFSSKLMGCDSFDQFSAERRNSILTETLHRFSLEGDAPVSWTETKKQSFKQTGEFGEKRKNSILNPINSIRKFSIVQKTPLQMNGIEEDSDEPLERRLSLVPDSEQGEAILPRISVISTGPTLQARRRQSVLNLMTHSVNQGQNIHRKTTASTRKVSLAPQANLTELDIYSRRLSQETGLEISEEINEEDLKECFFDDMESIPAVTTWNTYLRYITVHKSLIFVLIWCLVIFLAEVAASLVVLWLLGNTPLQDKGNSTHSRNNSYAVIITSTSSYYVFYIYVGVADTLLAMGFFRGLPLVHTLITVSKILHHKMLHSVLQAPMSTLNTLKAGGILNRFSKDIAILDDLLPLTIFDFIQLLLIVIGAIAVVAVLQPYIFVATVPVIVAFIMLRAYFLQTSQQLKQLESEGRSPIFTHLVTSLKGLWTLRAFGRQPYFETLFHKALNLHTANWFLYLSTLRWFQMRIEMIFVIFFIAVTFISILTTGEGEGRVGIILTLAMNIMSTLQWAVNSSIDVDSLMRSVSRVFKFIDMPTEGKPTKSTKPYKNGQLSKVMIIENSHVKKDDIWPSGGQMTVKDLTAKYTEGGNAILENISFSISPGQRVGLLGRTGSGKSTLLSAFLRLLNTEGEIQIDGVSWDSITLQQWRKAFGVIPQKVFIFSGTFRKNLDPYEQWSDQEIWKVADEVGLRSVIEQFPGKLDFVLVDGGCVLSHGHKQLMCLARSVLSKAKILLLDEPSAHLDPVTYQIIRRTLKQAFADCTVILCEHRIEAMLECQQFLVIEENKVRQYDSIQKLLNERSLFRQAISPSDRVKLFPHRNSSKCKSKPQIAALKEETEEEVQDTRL
T1 sequence (P13569 with tags, fused parts or gaps DEL508-508): as above

CS(=O)(=O)NC(=O)c1cc(N2CCC(S(C)(=O)=O)CC2)c2c(C3CCC3)nn(-c3ccccc3)c2n1 [Compound 190, 3-cyclobutyl-N-(methanesulfonyl)-4-[4-(methanesulfonyl)piperidin-1-yl]-1-phenyl-1H-pyrazolo[3,4-b]pyridine-6-carboxamide]
% Activation (ΔF508-CFTR [1]): 502.4%
EC50 (ΔF508-CFTR [1]): 1240 nM
% Activation (ΔF508-CFTR [2]): 284.8%
EC50 (ΔF508-CFTR [2]): 967 nM
EC50 (CFTR ΔF508): 51 nM
% Activity at 1 μM (AUC**) (CFTR ΔF508): 269%

COCC1CN(c2cc(C(=O)NS(C)(=O)=O)nc3c2c(C2CCC2)nn3-c2ccccc2)C1 [Compound 193, 3-cyclobutyl-N-(methanesulfonyl)-4-[3-(methoxymethyl)azetidin-1-yl]-1-phenyl-1H-pyrazolo[3,4-b]pyridine-6-carboxamide]
% Activation (ΔF508-CFTR [1]): 341.37%
EC50 (ΔF508-CFTR [1]): 589 nM
% Activation (ΔF508-CFTR [2]): 175.23%
EC50 (ΔF508-CFTR [2]): 1070 nM
% Activity at 1 μM (AUC**) (CFTR ΔF508): 317.57%

CS(=O)(=O)NC(=O)c1cc(OCCC2CCOCC2)c2c(C3CCC3)nn(-c3ccccc3)c2n1 [Compound 198, 3-cyclobutyl-N-(methanesulfonyl)-4-[2-(oxan-4-yl)ethoxy]-1-phenyl-1H-pyrazolo[3,4-b]pyridine-6-carboxamide]
% Activation (ΔF508-CFTR [1]): 321.57%
EC50 (ΔF508-CFTR [1]): 466 nM
% Activation (ΔF508-CFTR [2]): 135.73%
EC50 (ΔF508-CFTR [2]): 633 nM
% Activity at 1 μM (AUC**) (CFTR ΔF508): 477.39%

CS(=O)(=O)NC(=O)c1cc(OC[C@@H](F)C2CCOCC2)c2c(C3CCC3)nn(-c3ccccc3)c2n1 [Compound 199, 3-cyclobutyl-4-[(2S)-2-fluoro-2-(oxan-4-yl)ethoxy]-N-(methanesulfonyl)-1-phenyl-1H-pyrazolo[3,4-b]pyridine-6-carboxamide]
% Activation (ΔF508-CFTR [1]): 304.63%
EC50 (ΔF508-CFTR [1]): 316 nM
% Activation (ΔF508-CFTR [2]): 142.6%
EC50 (ΔF508-CFTR [2]): 481 nM
EC50 (CFTR ΔF508): > 1000 nM
% Activity at 1 μM (AUC**) (CFTR ΔF508): 627.48%

CS(=O)(=O)NC(=O)c1cc(OCC2CCOCC2)c2c(C3CCC3)nn(-c3ccccc3)c2n1 [Compound 200, 3-cyclobutyl-N-(methanesulfonyl)-4-[(oxan-4-yl)methoxy]-1-phenyl-1H-pyrazolo[3,4-b]pyridine-6-carboxamide]
% Activation (ΔF508-CFTR [1]): 318.27%
EC50 (ΔF508-CFTR [1]): 94.8 nM
% Activation (ΔF508-CFTR [2]): 163.43%
EC50 (ΔF508-CFTR [2]): 316 nM
% Activity at 1 μM (AUC**) (CFTR ΔF508): 364.3%

CS(=O)(=O)NC(=O)c1cc(-c2ccc(N3CCC(C#N)CC3)nc2)c2c(C3CCC3)nn(-c3ccnc(N4CCOCC4)c3)c2n1 [Compound 201, 4-[6-(4-cyanopiperidin-1-yl)pyridin-3-yl]-3-cyclobutyl-N-(methanesulfonyl)-1-[2-(morpholin-4-yl)pyridin-4-yl]-1H-pyrazolo[3,4-b]pyridine-6-carboxamide]
% Activation (ΔF508-CFTR [1]): 379.9%
EC50 (ΔF508-CFTR [1]): 292 nM
% Activation (ΔF508-CFTR [2]): 200.8%
EC50 (ΔF508-CFTR [2]): 402 nM
EC50 (CFTR ΔF508): < 300 nM
% Activity at 1 μM (AUC**) (CFTR ΔF508): 250%

COC1CCN(c2cc(C(=O)NS(=O)(=O)C3CCOCC3)nc3c2c(C2CCC2)nn3-c2ccccc2)CC1 [Compound 207, 3-cyclobutyl-4-(4-methoxypiperidin-1-yl)-N-(oxane-4-sulfonyl)-1-phenyl-1H-pyrazolo[3,4-b]pyridine-6-carboxamide]
% Activation (ΔF508-CFTR [1]): 284.87%
EC50 (ΔF508-CFTR [1]): 175 nM
% Activation (ΔF508-CFTR [2]): 141.93%
EC50 (ΔF508-CFTR [2]): 340 nM
% Activity at 1 μM (AUC**) (CFTR ΔF508): 441.31%

COC(=O)N1CCC2CN(c3cc(C(=O)NS(C)(=O)=O)nc4c3c(C3CCC3)nn4-c3ccccc3)CCC21 (stereo not shown) [Compound 215, methyl 5-{3-cyclobutyl-6-[(methanesulfonyl)carbamoyl]-1-phenyl-1H-pyrazolo[3,4-b]pyridin-4-yl}octahydro-1H-pyrrolo[3,2-c]pyridine-1-carboxylate]
% Activation (ΔF508-CFTR [1]): 569.35%
EC50 (ΔF508-CFTR [1]): 47.9 nM
% Activation (ΔF508-CFTR [2]): 374.57%
EC50 (ΔF508-CFTR [2]): 274 nM
EC50 (CFTR ΔF508): 45 nM
% Activity at 1 μM (AUC**) (CFTR ΔF508): 320%

CN(C)C[C@@H](F)C1CCN(c2cc(C(=O)NS(C)(=O)=O)nc3c2c(C2CCC2)nn3-c2ccccc2)CC1 [Compound 219, 3-cyclobutyl-4-{4-[(1S)-2-(dimethylamino)-1-fluoroethyl]piperidin-1-yl}-N-(methanesulfonyl)-1-phenyl-1H-pyrazolo[3,4-b]pyridine-6-carboxamide]
% Activation (ΔF508-CFTR [1]): 524.4%
EC50 (ΔF508-CFTR [1]): 230 nM
% Activation (ΔF508-CFTR [2]): 381.1%
EC50 (ΔF508-CFTR [2]): 764 nM
% Activity at 1 μM (AUC**) (CFTR ΔF508): 298.20%

COC(C)(C)C1CCN(c2cc(C(=O)NS(C)(=O)=O)nc3c2c(C(C)C)nn3-c2ccc(F)cc2)CC1 [Compound 221, 1-(4-fluorophenyl)-N-(methanesulfonyl)-4-[4-(2-methoxypropan-2-yl)piperidin-1-yl]-3-(propan-2-yl)-1H-pyrazolo[3,4-b]pyridine-6-carboxamide]
% Activation (ΔF508-CFTR [1]): 492.2%
EC50 (ΔF508-CFTR [1]): 77.2 nM
% Activation (ΔF508-CFTR [2]): 322.15%
EC50 (ΔF508-CFTR [2]): 420 nM
EC50 (CFTR ΔF508): 40 nM
% Activity at 1 μM (AUC**) (CFTR ΔF508): 245.9%

COCCS(=O)(=O)NC(=O)c1cc(-c2ccc(N3CCOCC3)cc2)c2c(OC(C)C)nn(-c3ccccc3)c2n1 [Compound 226, N-(2-methoxyethanesulfonyl)-4-[4-(morpholin-4-yl)phenyl]-1-phenyl-3-[(propan-2-yl)oxy]-1H-pyrazolo[3,4-b]pyridine-6-carboxamide]
% Activation (ΔF508-CFTR [1]): 392.95%
EC50 (ΔF508-CFTR [1]): 386 nM
% Activation (ΔF508-CFTR [2]): 206.7%
EC50 (ΔF508-CFTR [2]): 445 nM
EC50 (CFTR ΔF508): 56 nM
% Activity at 1 μM (AUC**) (CFTR ΔF508): 530%

CS(=O)(=O)NC(=O)c1cc(N2CCC(OC3CCCC3)CC2)c2c(C3CCC3)nn(-c3ccccc3)c2n1 [Compound 228, 3-cyclobutyl-4-[4-(cyclopentyloxy)piperidin-1-yl]-N-(methanesulfonyl)-1-phenyl-1H-pyrazolo[3,4-b]pyridine-6-carboxamide]
% Activation (ΔF508-CFTR [1]): 395.1%
EC50 (ΔF508-CFTR [1]): 335 nM
% Activation (ΔF508-CFTR [2]): 217.9%
EC50 (ΔF508-CFTR [2]): 490 nM
EC50 (CFTR ΔF508): 32 nM
% Activity at 1 μM (AUC**) (CFTR ΔF508): 240%

CS(=O)(=O)NC(=O)c1cc(N2CCC(OC3CCCCC3)CC2)c2c(C3CCC3)nn(-c3ccccc3)c2n1 [Compound 229, 3-cyclobutyl-4-[4-(cyclohexyloxy)piperidin-1-yl]-N-(methanesulfonyl)-1-phenyl-1H-pyrazolo[3,4-b]pyridine-6-carboxamide]
% Activation (ΔF508-CFTR [1]): 418.65%
EC50 (ΔF508-CFTR [1]): 366 nM
% Activation (ΔF508-CFTR [2]): 174.2%
EC50 (ΔF508-CFTR [2]): 414 nM
EC50 (CFTR ΔF508): 20 nM
% Activity at 1 μM (AUC**) (CFTR ΔF508): 430%

CS(=O)(=O)NC(=O)c1cc(N2CCC(OCC3CC3)CC2)c2c(C3CCC3)nn(-c3ccccc3)c2n1 [Compound 230, 3-cyclobutyl-4-[4-(cyclopropylmethoxy)piperidin-1-yl]-N-(methanesulfonyl)-1-phenyl-1H-pyrazolo[3,4-b]pyridine-6-carboxamide]
% Activation (ΔF508-CFTR [1]): 440.1%
EC50 (ΔF508-CFTR [1]): 180 nM
% Activation (ΔF508-CFTR [2]): 243.75%
EC50 (ΔF508-CFTR [2]): 406 nM
EC50 (CFTR ΔF508): 27 nM
% Activity at 1 μM (AUC**) (CFTR ΔF508): 265.44%

COCCS(=O)(=O)NC(=O)c1cc(N2CCC(COC)CC2)c2c(C(C)C)nn(-c3ccc(F)cc3)c2n1 [Compound 236, 1-(4-fluorophenyl)-N-(2-methoxyethanesulfonyl)-4-[4-(methoxymethyl)piperidin-1-yl]-3-(propan-2-yl)-1H-pyrazolo[3,4-b]pyridine-6-carboxamide]
% Activation (ΔF508-CFTR [1]): 497.5%
EC50 (ΔF508-CFTR [1]): 93.2 nM
% Activation (ΔF508-CFTR [2]): 309.83%
EC50 (ΔF508-CFTR [2]): 316 nM
EC50 (CFTR ΔF508): 80 nM
% Activity at 1 μM (AUC**) (CFTR ΔF508): 434.22%

— patent publication US10259810B2, “N-sulfonylated pyrazolo[3,4-b]pyridin-6-carboxamides and method of use” (AbbVie S.à.r.l., priority 2015, dated 2019)
